From patent US20170079966A1, “INHIBITION OF TUMOR CELL INTERACTIONS WITH THE MICROENVIRONMENT RESULTING IN A REDUCTION IN TUMOR GROWTH AND DISEASE PROGRESSION” (Deciphera Pharmaceuticals, LLC, priority 2014, published 2017)
Like-named read-outs stand apart in the source and are kept apart here.

How the values were obtained:
[1] = biological target: TIE2 (Homo sapiens, UniProt Q02763); experiment: Phospho-TIE2 Western blot in TIE2 expressing CHO-K1 cells; format: cell-based; design: expressed in transfected cells; host or cells: CHO-K1 (ATCC CCL-61), transient transfection; settings: CHO cells transiently expressing TIE2; 4 hours; read-out: IC50, inhibiting the constitutive phosphorylation of TIE2
Chain of TIE2 (Q02763 23-1124, species assumed): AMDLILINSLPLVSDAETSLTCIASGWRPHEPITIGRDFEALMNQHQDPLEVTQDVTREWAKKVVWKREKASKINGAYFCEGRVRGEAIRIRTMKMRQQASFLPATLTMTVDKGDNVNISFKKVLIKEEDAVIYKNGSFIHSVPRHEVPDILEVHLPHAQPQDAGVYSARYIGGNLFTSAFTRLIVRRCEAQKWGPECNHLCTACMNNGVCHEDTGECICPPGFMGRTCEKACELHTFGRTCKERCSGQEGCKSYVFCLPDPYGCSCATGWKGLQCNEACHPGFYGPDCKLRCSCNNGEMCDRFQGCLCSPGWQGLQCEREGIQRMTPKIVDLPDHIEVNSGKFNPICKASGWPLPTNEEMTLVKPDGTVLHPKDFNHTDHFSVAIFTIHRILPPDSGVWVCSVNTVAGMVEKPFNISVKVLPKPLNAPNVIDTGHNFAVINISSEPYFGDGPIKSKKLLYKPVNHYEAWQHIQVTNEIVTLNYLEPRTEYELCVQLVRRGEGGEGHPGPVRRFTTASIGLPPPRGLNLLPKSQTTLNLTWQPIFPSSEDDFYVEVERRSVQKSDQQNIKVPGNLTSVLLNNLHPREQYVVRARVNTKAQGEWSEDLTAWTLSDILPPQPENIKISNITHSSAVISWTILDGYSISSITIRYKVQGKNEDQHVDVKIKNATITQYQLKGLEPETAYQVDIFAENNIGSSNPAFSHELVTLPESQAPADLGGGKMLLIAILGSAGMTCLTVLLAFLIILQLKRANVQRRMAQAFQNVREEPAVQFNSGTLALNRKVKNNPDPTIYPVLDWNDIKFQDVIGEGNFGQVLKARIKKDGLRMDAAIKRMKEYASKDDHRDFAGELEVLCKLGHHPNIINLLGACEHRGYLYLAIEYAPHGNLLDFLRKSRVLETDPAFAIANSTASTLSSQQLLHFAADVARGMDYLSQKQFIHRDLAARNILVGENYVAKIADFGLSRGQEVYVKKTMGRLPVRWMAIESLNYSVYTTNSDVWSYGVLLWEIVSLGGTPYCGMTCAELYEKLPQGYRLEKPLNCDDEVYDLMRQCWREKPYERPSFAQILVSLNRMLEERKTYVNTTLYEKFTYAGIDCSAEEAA
Procedure: Briefly, cells were grown in F12K medium supplemented with 10% characterized fetal bovine serum (Invitrogen, Carlsbad, Calif.), 100 units/mL penicillin G, 100 μg/ml streptomycin, and 0.29 mg/mL L-glutamine (Invitrogen, Carlsbad, Calif.) at 37 degrees Celsius, 5% CO2, and 95% humidity.
CHO K1 cells (1×10^5 cells/well) were added to a 24-well tissue-culture treated plate in 1 mL of RPMI1640 medium supplemented with 10% characterized fetal bovine serum and 1× non-essential amino acids (Invitrogen, Carlsbad, Calif.). Cells were then incubated overnight at 37 degrees Celsius, 5% CO2, and 95% humidity. Medium was aspirated, and 0.5 mL of medium was added to each well. Transfection-grade plasmid DNA (TIE2 gene Gateway cloned into pcDNA3.2™/V5-DEST expression vector, Invitrogen, Carlsbad, Calif.) was diluted to 5 μg/mL in room temperature Opti-MEM® I Medium without serum (Invitrogen, Carlsbad, Calif.). Two μL of Lipofectamine LTX Reagent (Invitrogen, Carlsbad, Calif.) was added per 0.5 μg of plasmid DNA. […] Fluorescence was detected using a Storm 840 phosphorimager (GE Healthcare, Piscataway, N.J.) in fluorescence mode. […] The 160 kDa phospho-TIE2 and total TIE2 bands were quantified using ImageQuant software (GE Healthcare, Piscataway, N.J.), and data was plotted using Prism software (GraphPad Software, San Diego, Calif.).

[2] = tested on: macrophage-mediated intravasation of human breast cancer cells (MDA-MB 231-GFP); experiment: In vitro intravasation-directed transendothelial migration (iTEM) assay; format: cell-based; settings: BAC1.2F5 macrophages, HUVEC monolayer
Procedure: In vitro intravasation-directed transendothelial migration (iTEM) assay protocol. The iTEM assay was performed in a Transwell two-chamber apparatus. The Transwell was prepared so that tumor cell transendothelial migration of tumor cells was in the intravasation direction (from subluminal side to luminal side of the endothelium). We define this as the iTEM assay. To prepare the endothelial monolayer, the underside of each Transwell was coated with 50 μl of Matrigel (2.5 μg/ml; Invitrogen). About 100,000 HUVEC cells were plated on the Matrigel-coated underside of the Transwells. Transwells were then flipped onto a 24-well plate containing 200 μl of α-MEM (minimum essential medium) supplemented with 10% fetal bovine serum (FBS)+3000 U of CSF-1 and incubated until the endothelium formed impermeable monolayers. […] Once impermeable by these criteria, the Transwell assay was used for iTEM studies. All the assays were run in the presence of BAC1.2F5 murine macrophage cell line and MDA-MB 231-GFP human breast cancer cells. Transwells were imaged using a Leica SP5 confocal microscope using a 60×1.4 numerical aperture objective and processed using ImageJ [National Institutes of Health (NIH)] and IMAMS programs. Quantitation was performed by counting the number of tumor cells that had crossed the endothelium within the same field of view (60×, 10 random fields).

[3] = biological target: T1, uTIE2 kinase (Homo sapiens, UniProt Q02763); experiment: Biochemical assay for uTIE2 kinase (pyruvate kinase/lactate dehydrogenase coupled); settings: ATP 1.5 mM; rate 5 to 6 h; read-out: IC50, inhibition of uTIE2 kinase
T1 construct: purchased SignalChem
T1 sequence (Q02763 771-1124): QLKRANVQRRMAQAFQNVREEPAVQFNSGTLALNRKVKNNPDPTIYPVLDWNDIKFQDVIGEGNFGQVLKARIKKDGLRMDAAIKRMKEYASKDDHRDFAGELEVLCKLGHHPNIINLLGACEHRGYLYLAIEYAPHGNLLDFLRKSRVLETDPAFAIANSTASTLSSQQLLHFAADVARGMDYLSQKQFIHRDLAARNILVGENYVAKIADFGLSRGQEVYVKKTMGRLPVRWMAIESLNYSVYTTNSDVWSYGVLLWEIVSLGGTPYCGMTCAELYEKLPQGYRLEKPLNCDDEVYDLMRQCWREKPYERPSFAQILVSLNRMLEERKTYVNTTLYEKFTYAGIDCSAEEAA
Procedure: Activity of uTIE2 kinase was determined by following the production of ADP from the kinase reaction through coupling with the pyruvate kinase/lactate dehydrogenase system [Schindler 2000]. In this assay, the oxidation of NADH (thus the decrease at A340 nm) was continuously monitored spectrophotometrically. The reaction mixture (100 μL) contained TIE2 (SignalChem) (5.6 nM), BSA (0.004% (w/v)), polyEY (1.5 mg/ml), MgCl2 (15 mM), DTT (0.5 mM), pyruvate kinase (4 units), lactate dehydrogenase (7 units), phosphoenol pyruvate (1 mM), and NADH (0.28 mM) and ATP (1.5 mM) in 90 mM Tris buffer containing 0.2% octyl-glucoside and 1% DMSO, pH 7.5. […] The absorption at 340 nm was monitored continuously for 6 hours at 30° C. on a plate reader (BioTek). The reaction rate was calculated using the 5 to 6 h time frame. Percent inhibition was obtained by comparison of reaction rate with that of a control (i.e. with no test compound).

[4] = tested on: SKOV-3; experiment: SKOV-3 ovarian xenograft model; settings: in vivo
[5] = tested on: A375
Source text: Mice were implanted subcutaneously and treatment began on Day 8. Treatments ended on Day 36 after four weeks of treatment.

Q: Which IC50 [1] does the source give for `O=C(Nc1cc(Oc2cc(F)c(NC(=O)C3(C(=O)Nc4ccc(F)cc4)CC3)cc2F)ccn1)C1CC1` [Compound 1, N-(4-(2-(cyclopropanecarboxamido)pyridin-4-yloxy)-2,5-difluorophenyl)-N′-(4-fluorophenyl)cyclopropane-1,1-dicarboxamide] here?
A: 2.4 nM

Q: What about the IC50 [2] of the same compound?
A: < 10 nM

Q: What about the IC50 [3] of the same compound?
A: 7.9 nM

Q: And the SKOV-3 tumor growth [4]?
A: only weakly inhibited

Q: What about the “Day 22 % T/C” value ([5]; 10 mg/kg, orally, BID) of the same compound?
A: 47%

Q: And the “Median tumor growth delay” value ([5]; 10 mg/kg, orally, BID)?
A: > 12.4 days

Q: What about the “Day 22 % T/C” value ([5]; 20 mg/kg, orally, QD) of the same compound?
A: 33%

Q: What about the Tumor growth delay ([5]; 20 mg/kg, orally, QD) of the same compound?
A: 15.7 days

Q: What about the “CD31+ microvessel area in tumor sections at the end of study” value ([5]; mouse, in vivo) of the same compound?
A: significant decreases
